The record followed here is patent publication US6184396A, “Triazole derivative or salt thereof, preparation process thereof and pharmaceutical containing said compound as an effective ingredient” (SSP Co., Ltd., priority 1998, dated 2001).

In brackets after ≈: the same amount, converted by molar mass.

Test [1] relates to A. fumigatus IFM 40808. The test can be described thus: Test 2: Action against Aspergillus fumigatus (in vitro). Format: cell-based. The conditions noted are these: IFM40808, 0.165M MOPS-containing RPMI 1640, pH 7, almar Blue, 35° C., 48 hours. As to the method:
Test 2: Action against Aspergillus fumigatus (in vitro)
They were incubated at 35° C. for 48 hours.

Test [2] has as its system C. albicans ATCC 44859. The test can be described thus: Test 1: Action against Candida albicans (in vitro). The test is classed as cell-based. The conditions noted are these: ATCC44859, minimum concentration with apparent suppression of mycelial type growth vs medicament-free control, MEM medium + 10% fetal bovine serum, 37° C., 24 hours, CO2, read-out: Terminal point C. albicans. As to the method: Test 1: Action against Candida albicans (in vitro)
The resulting mixture was incubated at 37° C. for 24 hours in a CO2 gas incubator. After incubation, a morphological change of C. albicans was observed under an inverted microscope. The minimum medicament concentration permitting the apparent suppression of mycerial type growth compared with that of a medicament-free control was designated as a terminal point (ng/ml).

Test [3] concerns C. albicans IFM 40009. The experiment in a line: Test 3: Action against Candida albicans (in vivo). The conditions noted are these: mice infected i.v. with C. albicans, 1.25 mg/kg oral, 1 hour after inoculation then once a day for 4 days from 24 hours; for Surviving mice on Day 14, number of surviving mice/total number in group: control 0/11; for Average Survival days: control 4.5 days, *** p < 0.001 relative to control. On the set-up: species or system C. albicans; mice (ICR (CRJ: CD-1), male, 4-week-old). As to the method:
Test 3: Action against Candida albicans (in vivo)
After 4-week-old, male, ICR (CRJ: CD-1) mice were fasted for 6 hours, C. albicans IFM 40009 was inoculated to the tail vein of each of the mice to give an amount of 3.0×10^6 cells/mouse, whereby infection was caused. A control group consisted of 11 mice, while a medicament-administered group consisted of 5 mice. The medicament dissolved in 20% polyethylene glycol was orally administered 1 hour after the inoculation of the fungus and from 24 hours after the inoculation, it was administered once a day for 4 straight days, each in an amount of 1.25 mg/kg. The survival condition on Day 14 after the infection was compared. In addition, the survival days of the control group and the medicament-administered group were detected by the Kaplan-Meier method (Cox mantel test). Incidentally, Fluconazole was employed as a medicament for comparison.

For `O=S(=O)(C1CC1)C(F)(F)C(O)(Cn1cncn1)c1ccc(F)cc1F` (single isomer, unassigned; (-)) [Example 17(2), (-)-1-(Cyclopropylsulfonyl)-2-(2,4-difluorophenyl)-1,1-difluoro-3-(1H-1,2,4-triazol-1-yl)-2-propanol], the MIC worked out at 2 µg/mL (≈ 5.27 µM) in test [1] and 0.0156 µg/mL in test [2].

For the molecule `OC(Cn1cncn1)(c1ccc(F)cc1F)C(F)(F)SC1CC1` (stereo not drawn) [Example 7, 1-(cyclopropylthio)-2-(2,4-difluorophenyl)-1,1-difluoro-3-(1H-1,2,4-triazol-1-yl)-2-propanol], the results for the MIC in test [1] and in test [2] were 2 µg/mL (≈ 5.76 µM) and 0.0078 µg/mL, respectively.

In test [1], `O=S(=O)(C1CC1)C(F)(F)C(O)(Cn1cncn1)c1ccc(F)cc1F` (racemic) [Example 12, 1-(cyclopropylsulfonyl)-2-(2,4-difluorophenyl)-1,1-difluoro-3-(1H-1,2,4-triazol-1-yl)-2-propanol] returned an MIC of 8 µg/mL (≈ 21.1 µM). Further, in test [3], the “Surviving mice on Day 14, number of surviving mice/total number in group” value was 4/5 and the “Average Survival days” value is 14.00 days. Besides, the MIC in test [2] came to 0.0313 µg/mL.

Turning to `COC(Cn1cncn1)(c1ccc(F)cc1F)C(F)(F)S(=O)(=O)C1CC1` (stereo not drawn) [Example 15, 1-[3-(cyclopropylsulfonyl)-2-(2,4-difluorophenyl)-3,3-difluoro-2-methoxypropyl]-1H-1,2,4-triazole], in test [3], the “Surviving mice on Day 14, number of surviving mice/total number in group” value is on record as 4/5 and the “Average Survival days” value is 13.4 days.

For the molecule `COC(Cn1cncn1)(c1ccc(F)cc1F)C(F)(F)SC1CC1` (stereo not drawn) [Example 10, 1-[3-(cyclopropylthio)-2-(2,4-difluorophenyl)-3,3-difluoro-2-methoxypropyl]-1H-1,2,4-triazole], the figures for the MIC in test [1] and in test [2] were 32 µg/mL (≈ 88.6 µM) and 0.0313 µg/mL, respectively.

As to `OC(Cn1cncn1)(Cn1cncn1)c1ccc(F)cc1F` [Fluconazole, reference compound], the MIC in test [1] is over 128 µg/mL. Besides, in test [3], the “Surviving mice on Day 14, number of surviving mice/total number in group” value is reported as 1/5 and the “Average Survival days” value is 11.0 days. In addition, the MIC in test [2] came out at 0.25 µg/mL.

As to `OC(Cn1cncn1)(c1ccc(F)cc1)C(F)(F)SC1CC1` (stereo not drawn) [Example 8, 1-(cyclopropylthio)-1,1-difluoro-2-(4-fluorophenyl)-3-(1H-1,2,4-triazol-1-yl)-2-propanol], the MIC in test [1] stood at 8 µg/mL (≈ 24.3 µM); in test [2], 0.0156 µg/mL.
